Results: article PMC3796549 (PLoS ONE, 2013)
Like-named read-outs stand apart in the source and are kept apart here.

Assays:
PtpB from Mtb = molecular target: T1, PtpB from Mtb (Mycobacterium tuberculosis, UniProt P96830); assay: biochemical; type: biochemical
T1 construct: made in house

human PTP1B = molecular target: T2, human PTP1B (Homo sapiens, UniProt P18031); assay: biochemical; conditions: for IC50: pNPP substrate, mean ± SD, 3 experiments
T2 construct: made in house
T2 sequence (P18031 1-435): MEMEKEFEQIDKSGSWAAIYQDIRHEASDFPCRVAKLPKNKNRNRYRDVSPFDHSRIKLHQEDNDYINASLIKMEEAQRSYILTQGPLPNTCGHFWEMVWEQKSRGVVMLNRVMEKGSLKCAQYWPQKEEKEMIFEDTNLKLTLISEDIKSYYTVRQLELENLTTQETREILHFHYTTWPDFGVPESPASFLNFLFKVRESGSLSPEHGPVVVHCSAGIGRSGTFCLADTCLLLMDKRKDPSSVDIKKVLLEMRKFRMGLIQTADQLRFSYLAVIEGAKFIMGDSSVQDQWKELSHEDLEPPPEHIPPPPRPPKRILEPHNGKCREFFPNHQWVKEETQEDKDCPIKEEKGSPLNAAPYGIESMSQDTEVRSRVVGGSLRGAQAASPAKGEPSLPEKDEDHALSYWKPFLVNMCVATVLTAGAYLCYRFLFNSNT

PtpB [1] = molecular target: T3, PtpB (Mycobacterium tuberculosis, UniProt P96830); assay: biochemical; conditions: for Ki: pNPP 0.2-12.8 mM, mean ± SD; for Type of inhibition: with respect to substrate pNPP
T3 construct: made in house
T3 sequence (P96830 1-276): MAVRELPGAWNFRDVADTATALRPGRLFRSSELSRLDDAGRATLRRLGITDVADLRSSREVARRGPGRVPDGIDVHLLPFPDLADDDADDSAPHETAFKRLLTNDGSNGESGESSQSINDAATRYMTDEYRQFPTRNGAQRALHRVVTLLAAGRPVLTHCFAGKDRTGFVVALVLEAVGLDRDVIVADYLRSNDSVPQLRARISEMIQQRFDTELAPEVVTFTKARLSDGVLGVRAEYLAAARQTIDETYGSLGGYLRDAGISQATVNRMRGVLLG

PtpB [2] = molecular target: T3, PtpB; conditions: 300 µM inhibitor, PtpB 5 µM, 3 hours 37 °C
trypsin = molecular target: T4, trypsin (Sus scrofa, UniProt P00761); assay: Inhibition of trypsin by the inhibitor itself; type: biochemical
T4 construct: purchased Promega
T4 sequence (P00761 9-231): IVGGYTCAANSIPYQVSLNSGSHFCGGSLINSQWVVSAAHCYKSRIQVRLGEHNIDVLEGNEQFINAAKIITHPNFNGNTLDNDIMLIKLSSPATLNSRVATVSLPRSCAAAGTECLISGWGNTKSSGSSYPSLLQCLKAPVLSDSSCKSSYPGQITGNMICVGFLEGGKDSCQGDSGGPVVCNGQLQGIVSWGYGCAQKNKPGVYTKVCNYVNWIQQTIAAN

[3] = pNPP substrate, 37 °C, imidazole pH 7.0, mean ± SD, 3 experiments

T1 sequence (P96830 1-276): as the sequence (P96830 1-276) above

Compound	IC50 (PtpB from Mtb; [3]) [µM]	SI (Selectivity index) (human PTP1B)	IC50 (human PTP1B) [µM]	IC50 / Ki (PtpB [1])	Ki (PtpB [1]) [µM]	Type of inhibition (PtpB [1])	also measured
COc1ccc(CCC(=O)c2c(O)cc(OC)c(CC=C(C)C)c2OC)cc1CC=C(C)CCC=C(C)C [59-triMe, 4,2’,4’-trimethoxy-6’-hydroxy,3’-prenyl-3-geranyldihydrochalcone]	> 100						
COc1c(C)c(OC(C)=O)c2c(c1-c1c(OC)c(C)c(OC(C)=O)c3c1C(=O)c1cc(C)cc(OC(C)=O)c1C3=O)C(=O)c1cc(C)cc(OC(C)=O)c1C2=O [Ac3, tetra-acetyl-trachypone]	33.2 ± 4.9	0.9	31.2 ± 2.7	1.9	17.1 ± 4.5	Competitive	
C[N+](C)(C)CCc1c[nH]c2ccc(O)cc12.[I-] [Buf-I, bufotenine CH3I]	> 100						PtpB enzymatic inhibition (in words) (PtpB from Mtb; up to 100 µM): not active
O=C(O)/C=C/c1ccc(OC2O[C@H](CO)[C@@H](O)[C@H](O)[C@H]2O)c(O)c1 (some centres unmarked) [Caf, 4-O-glucosyl caffeic acid]	> 100						PtpB enzymatic inhibition (in words) (PtpB from Mtb; up to 100 µM): not active
O=C(/C=C/c1ccc(O)c(O)c1)O[C@@H]1C[C@@](OC(=O)/C=C/c2ccc(O)c(O)c2)(C(=O)O)C[C@@H](O)[C@@H]1O [Cyn, cynarin]	> 100						PtpB enzymatic inhibition (in words) (PtpB from Mtb; up to 100 µM): not active
CC(C)=CCC/C(C)=C/Cc1cc(CCC(=O)c2c(O)cc(O)c(CC=C(C)C)c2O)ccc1O [Ega1, 4,2’,4’,6’-tetrahydroxy-3’-prenyl-3-geranyldihydrochalcone]	13.4 ± 2.6	1.6	20.9 ± 2.8	0.9	14.5 ± 2.3	Non-competitive	
COc1ccc([C@@H]2CC(=O)c3c(O)cc(O[C@@H]4O[C@H](CO[C@@H]5O[C@@H](C)[C@H](O)[C@@H](O)[C@H]5O)[C@@H](O)[C@H](O)[C@H]4O)cc3O2)cc1O [Hesp, hesperidin]	> 100						PtpB enzymatic inhibition (in words) (PtpB from Mtb; up to 100 µM): not active
CC(C)=CCc1c(O)ccc(C(=O)[C@H]2[C@@H](c3c(O)cc(/C=C/c4ccc(O)cc4O)cc3O)C=C(C)C[C@@H]2c2ccc(O)cc2O)c1O [KuwE, Kuwanol E]	1.9 ± 0.5	5.1	9.6 ± 2.6	1.2	1.6 ± 0.1	Competitive	Protection of PtpB catalytic site from proteolytic cleavage by trypsin (fragments m/z 1953 and m/z 2224) (PtpB [2]): protecting it from the proteolytic cleavage by trypsin; Inhibition of trypsin (trypsin): not able to inhibit trypsin
COc1c(C2COc3cc(O)c(CC=C(C)C)c(O)c3C2=O)ccc(O)c1CC=C(C)C (centres unmarked) [M2, isosophoranone]	19.8 ± 2.3						
COc1c(C2COc3cc(O)c(CCC(C)C)c(O)c3C2=O)ccc(O)c1CCC(C)C (centres unmarked) [M2H, tetra-hydro-isosophoranone]	69.4 ± 4.5						
CC(C)=CCc1c(C)c(CC=C(C)C)c2c(c1O)C(=O)c1c(O)cc(O)c(CC=C(C)C)c1C2 [PirIII, 1,3,8-trihydroxy-6-methyl-4,5,7-triprenylanthrone]	5.4 ± 0.6		11.8 ± 3.5	0.8	6.6 ± 2.7	Non-competitive	
COc1c(C)c(O)c2c(c1-c1c(OC)c(C)c(O)c3c1C(=O)c1cc(C)cc(O)c1C3=O)C(=O)c1cc(C)cc(O)c1C2=O [compound 6016, trachypone]	19.2 ± 6.7	0.4	7.1 ± 1.4	1.7	11.5 ± 1.7	Competitive	
O[C@@H]1OC[C@H](Cc2ccc3c(c2)OCO3)[C@H]1Cc1ccc2c(c1)OCO2 [α-Cub, α-cubebin]							PtpB enzymatic inhibition (in words) (PtpB from Mtb): not active; IC50 (PtpB from Mtb; pH 7): > 100 µM
CC(C)=CCc1c(C)c(CC=C(C)C)c2c(c1O)C(=O)c1c(O)cc(O)c(CC=C(CO)CO)c1C2 [∆3, 1,3,8-trihydroxy-6-methyl-5,7-diprenyl-4-γ,γ’dihydroxyprenyl-anthrone]	26.7 ± 0.6	0.6	14.7 ± 2.1	2.0	13.4 ± 1.5	Non-competitive	
